For data set [1], the system named is melanoma lesion tissue of the skin. Kind of data set: Test Example 3: staining with various SC compounds, two-photon microscopy. Conditions: for imaging performance for fluorescence observation (rank): cleared melanoma lesion tissue. Here is the method: (§1) The staining solution of Test Examples 1 and 2 was prepared by dissolving PK in DMSO at 1 mg/mL. Each of staining solutions of Test Example 3 and Test Example 4 was a DMSO solution containing 1 mM of an SC compound, and was diluted 100 times for use of staining.
(§2) As the skin normal part tissue, the extramammary Paget's disease lesion tissue, and the melanoma lesion tissue used in Test Examples, whole tissue sections of the tissues obtained by excision were used. A dermatologist has confirmed in advance the identification of each tissue. Also, a normal part tissue and a tumor tissue of the rectum were also prepared by whole-sectioning of the tissues obtained by excision, and a specialist has confirmed the identification of each tissue. The collection and use of the tumor tissues were approved by the Clinical Research Ethics Review Board at Ehime University Hospital (No. 1802009) and were conducted according to its study protocol.
(§3) For microscopy, a two-photon microscope AIR MP+(NIKON) was used. In the measurement, a 960 nm laser light source and a 495 nm filter were used for PK, and a 561 nm filter was used for PI. Scanning was performed to a depth of 100 μm of the sample. The three-dimensional reconstructed image is obtained by processing the obtained data with the software included.
(§4) Normal part tissue of the skin and extramammary Paget's disease lesion tissue cleared by LUCID method in the same manner as in Test Example 2 were stained with a staining solution containing PK, PC, Nile Red, or POLARIC. Each stained tissue section was observed according to the method of two-photon microscopy of Test Example 1. The images were produced by coloring a fluorescent wavelength of 492 nm or less in cyan, 500 to 550 nm in green, 560 to 593 nm in yellow, and 593 nm or more in red. Brightness and contrast of the illustrated images were appropriately corrected.
Melanoma lesion tissue of the skin cleared by the same method were similarly stained and observed with a two-photon microscope.

Data set [2] relates to extramammary Paget's disease lesion tissue. The description is as above. Conditions: cleared Paget's disease lesion tissue; for imaging performance for fluorescence observation (rank): judged by fluorescence intensity and contrast of staining. The method, then:
as §1, §2, §3, §4

The conditions of data set [3]: cited from earlier work.
Data set [4] relates to well-differentiated adenocarcinoma lesion tissue of the rectum. Nature of the data set: Test Example 4: PK and Hoechst staining of rectum, two-photon microscopy. The settings on record: cleared by LUCID method, co-stained with Hoechst. Here is the method:
as §1, §2
For microscopy, a two-photon microscope AIR MP+(NIKON) was used. In the measurement, a 960 nm laser light source and a 495 nm filter were used for PK, and a 561 nm filter was used for PI. Scanning was performed to a depth of 100 μm of the sample. The three-dimensional reconstructed image is obtained by processing the obtained data with the software included. […]

Data set [5] has as its system extramammary Paget's disease lesion tissue, tumor cells (Paget cells). Nature of the data set: Test Example 1: PK staining of thin sliced section, two-photon microscopy. Here is the method: as §1, §2
The extramammary Paget's disease lesion tissue and the normal part tissue were embedded in paraffin and then cut out to prepare tissue sections. The preparation of the sections (thickness: 5 μm) was performed by the procedure usually performed in histopathological examination. For staining with the PK staining solution, deparaffinization was performed by a conventional method, and then staining was performed by immersion in the PK staining solution at room temperature for several days to one week. In practice, the tissues were sufficiently stained by immersion in the PK staining solution at room temperature for 2 to 3 days.
as §3

Data set [6] concerns extramammary Paget's disease lesion tissue (Paget cells). Nature of the data set: Test Example 2: PK staining of cleared three-dimensional tissue, two-photon microscopy. Here is the method: as §1, §2, §3
(§5) Derived extramammary Paget's disease lesion tissue having a thickness of 500 μm and malignant melanoma lesion tissue having a thickness of 100 μm were subjected to a clearing treatment without being subjected to fixation and thinly slicing, and then stained with PK and propidium iodide (PI). Clearing treatment was performed by using LUCID method, according to the procedure described in Sawada K, Kawakami R, Shigemoto R, and Nemoto T. Eur. J. Neurosci., 2018, Vol. 47, No. 9, 1033-1042. The cleared tissue was stained with a PK staining as in Test Example 1. PI staining was performed by a method usually performed in tissue staining. As conditions for microscopy, the same conditions as in Test Example 1 were used for detection of PK signals.

The subject of data set [7] is malignant melanoma lesion tissue (melanoma cells). Described as above. Conditions: cleared tissue 100 μm thick, LUCID method, 495 nm. The method, then:
as §1, §2, §3, §5

Data set [8] concerns normal rectal mucosal epithelium (columnar epithelium). Nature of the data set: Test Example 4: PK and Hoechst staining of rectum, two-photon microscopy. The settings on record: cleared by LUCID method, co-stained with Hoechst. Here is the method: The staining solution of Test Examples 1 and 2 was prepared by dissolving PK in DMSO at 1 mg/mL. […]
as §2, §3
The normal part tissue and the well-differentiated adenocarcinoma lesion tissue of the rectum cleared by LUCID method in the same manner as in Test Example 2 were stained with PK and Hoechst. […]

A short description of data set [9]: Measurement of photophysical properties of PC in organic solvent and phosphate buffer (absorption spectrum, fluorescence spectrum, fluorescence quantum yield). It counts as physicochemical. The settings on record: 20 mM phosphate buffer (pH 7.4) at 25° C.
The mark [10] stands for this setting: 5 μm paraffin section, 960 nm laser, 495 nm filter.

These results are taken from US20240053346A1, “FLUORESCENT DYE AND METHOD FOR DETECTING TUMOR CELLS” (NATIONAL UNIVERSITY CORPORATION EHIME UNIVERSITY, priority 2020, published 2024).

Where two headings read alike, the source gives them in different places.

As to `CCN(CC)c1ccc2nc3c4ccccc4c(=O)cc-3oc2c1` [Nile Red], the “shift of the fluorescence wavelength due to solvatochromism” value in data set [1] (Test Example 3 stained tissue) is recorded as “relatively small”. In addition, the “imaging performance for fluorescence observation (rank)” value (“imaging performance” below) in data set [1] was “followed by PK, POLARIC, and Nile Red in this order”. Besides, in data set [2], the “fluorescence intensity of the raw image” value is “lower than those of PK and PC”; the “imaging performance” value is “followed by PK, Nile Red, and POLARIC in this order”.

In the case of `CC(=O)c1ccc2ccc3c(N4CCCCC4)ccc4ccc1c2c43` [PK, 1-Acetyl-6-piperidylpyrene], in data set [3] (20 mM phosphate buffer (pH 7.4) at room temperature), the absorption maximum wavelength is 407 nm. In addition, the “fluorescence maximum wavelength λDMSO” value in data set [3] (DMSO) is reported as 558 nm. Besides, the “fluorescence maximum wavelength λMet” value in data set [3] (methanol) is 593 nm. Moreover, the “fluorescence maximum wavelength λHep” value in data set [3] (n-heptane) is 474 nm. Further, in data set [3] (toluene), the “fluorescence maximum wavelength ΔTol” value is 503 nm. Moreover, the “staining of rectal tumor lesion” value in [4] is given as “cytoplasmic staining property by PK staining was high”. Moreover, in data set [5] (setting [10]), the “distinction of tumor cells from normal cells” value was “tumor cells can be distinguished from normal cells”; the “fluorescence signal in the parts where the tumor cells (Paget cells) exist” value is “the fluorescence wavelength shifted and the signal level decreased”. Besides, the “distribution of the dye in cells” value in [5] (thin sliced section) is reported as “inserted into cell membranes”. In addition, in data set [6] (cleared tissue 500 μm thick, LUCID method, 495 nm), the “detection of tumor cells (Paget cells)” value is on record as “successfully detected even when they were scattered one by one”. In [6] (normal cells within the observed lesion tissues of Test Example 2), the “signals in normal cells of the epidermis, dermis, and hair follicle” value is “significantly observed in all of these cells”. For the same molecule, the “fluorescence signal in malignant melanoma cells” value in [7] is listed as “not observed”. In data set [8], the “staining of normal rectal mucosal epithelium” value is reported as “cell membranes were positive for PK staining, cytoplasm was poorly stained”. In addition, the “imaging performance” value in [1] is “followed by PK, POLARIC, and Nile Red in this order”. For the same molecule, the “imaging performance” value in [2] was “followed by PK, Nile Red, and POLARIC in this order”.

`CCCC(=O)/C=C/c1ccc2ccc3c(N4CCCCC4)ccc4ccc1c2c43` [compound A, (E)-1-(6-(piperidin-1-yl)pyren-1-yl)hexa-1-en-3-one]: in data set [9], the absorption maximum wavelength stood at 421 nm and the fluorescence maximum wavelength worked out at 621 nm. Also, the “imaging performance” value in [1] is on record as “best performance”. Moreover, the “imaging performance” value in [2] was “best performance”.
